Measurements published in EP0728012B1, “NOVEL GnRH ANALOGUES WITH ANTITUMOUR EFFECTS AND PHARMACEUTICAL COMPOSITIONS THEREOF” (Lovas, Sandor, priority 1994, dated 1996).

Assays:
[1] = tested on: Ishikawa human endometrium carcinoma cell line; experiment: Inhibition of colony formation (dose-survival relation, Example 18); type: cell-based; conditions: for inhibition of colony formation: 30 to 50 µM
[2] = tested on: MCF-7 human mammary carcinoma cell line; experiment: as above; type: cell-based; conditions: treated once
[3] = tested on: MDA-MB-231 human mammary carcinoma cell line; experiment: as above; type: cell-based
[4] = tested on: PC3 human prostate carcinoma cell line; experiment: as above; type: cell-based; conditions: for inhibition of colony formation: 30 to 50 µM
[5] = tested on: MCF-7 xenograft; experiment: In vivo antitumour effect on MCF-7 xenograft in immunosuppressed mice; design: species or system CBA/Ca mice; conditions: for rate of tumour growth / decrease in the tumour volume in comparison to controls: first study; for rate of tumour growth: conjugates 150 µg in every 3rd day, P-GFLG-OH daily s.c.; for decrease in the tumour volume in comparison to controls: end of 4th week, MI-1892 2 x 25 µg daily, conjugates 50 µg daily once; for tumour volume: 4th week of treatment; for Tumour volume as control (%): conjugates 1 x 50 µg; for Inhibition % (tumour growth): daily s.c.; for Volume (cm^3) of tumours / Weight (g) of tumours: after 6 week treatment, xenograft not given
Experimental: The immunosuppression of mice was carried out by using the method of Steel et al. [Br. J. Cancer, 37, 224-230 (1978)]. Immunosuppression and xeno-transplantation
CBA-Ca female mice of about 6 weeks old were thymectomized and then, after one week, they were irradiated with 60Co (whole body irradiation; the lethal dose is 9.5 Gray). Within 24 hours 3 to 5 x 10^5 myelocytes were injected into the animals. Beneath the skin of the immunosuppressed mice 2 x 10^7 tumour cells or, in the case of later passages, […] were implanted. […] The treatment with steroid hormone was stopped by at least one week before beginning the investigation.
In the case of MCF-7 tumours (xenografts) the examinations were carried out with passages being in the phase of the 37th and 38th, respectively, transplantations.
In the case of mice bearing MCF-7 xenograft, the treatment was begun in the 4th week following xeno-transplantation.
Recent investigations have begun on 28 animals bearing MCF-7 xenograft and on 28 animals bearing MDA-MB-231 xenograft. On animals bearing MCF-7 tumour the treatment was commenced in the 5th week following xeno-transplantation; the tumour volume was 205 to 225 mm^3. On animals bearing MDA-MB-231 tumour, the treatment was started in the 4th week after xeno-transplantation with a tumour volume of 140 to 150 mm^3. […] The control groups were daily treated with physiological saline s.c. (Each treated group consisting of 7 animals).

[6] = tested on: humoral immune response; experiment: Humoral immune response (antibody production of B-lymphocytes); type: in vivo; conditions: mice; dose not stated
Text: (§1) The immunosuppressive side effect of cytostatics used in tumour therapy is commonly known. This effect can be compensated to a certain grade by various immunostimulants (endotoxin, levamisole). Polypeptides with much […] molecular weights (about 40,000 to 80,000) are also capable of protecting against immunosuppressive effect [Gaál et al: J. Biol. Resp. Modif., 5, 148-159 (1986)]. The molecular weight of the novel polyanionic P-GFLG-OH macromolecule tested by us is about 10,000, that of MI-1892 is about 2000, i.e. relatively low; therefore, their immunostimulatory activity was unexpected.

[7] = tested on: cellular immune response; experiment: Cellular immune response (rosette formation against BRBC antigen); type: in vivo; conditions: mice; dose not stated
Text: as §1

[8] = tested on: cytosolic progesterone receptor (cPgR); conditions: animals bearing MCF-7 xenografts
[9] = Castration effect: uterus weight of xenograft-bearing animals; type: in vivo, mice; conditions: animals bearing MCF-7 xenografts; treatment for four weeks
Text: The castration effect is illustrated by the following data.

[10] = MCF-7 xenograft, treatment week 2
[11] = MCF-7 xenograft, treatment week 4
[12] = MCF-7 xenograft, treatment week 6, MI-1892 2 x 25 µg

Row | Substance | inhibition of colony formation [1] | % Inhibition of colony formation ([2]; 10 µM (active substance)) | % Inhibition of colony formation ([2]; 50 µM (active substance)) | % Inhibition of colony formation ([3]; 10 µM) | % Inhibition of colony formation ([4]; 10 µM) | inhibition of colony formation [4] | rate of tumour growth ([5]; MCF-7 xenograft) | decrease in the tumour volume in comparison to controls ([5]; MCF-7 xenograft) | tumour volume ([5]; MCF-7 xenograft) | Tumour volume as control (%) [5, 10] | Inhibition % (tumour growth) [5, 11] | Tumour volume as control (%) [5, 12] | Volume (cm^3) of tumours [5] | Weight (g) of tumours [5] | decrease of the uterus cPgR level [8] | further results
1 | Ac-D-Trp^1,3,D-Cpa^2, {Lys[n-poly(N-vinyl pyrrolidone-co-maleic acid)-Gly-Phe-Leu-Gly-]}^5, [a-Asp(DEA)]^6, D-Ala^10-GnRH [P-GFLG-1892] | 100% | 60% | 93% | 92% | 86% | 100% | not influenced | 30% | 2.428 cm^3 | 70% | 37% | 57% | 4.327 ± 0.379 cm^3 | 4.0 ± 0.9 g | 23% | % Inhibition of colony formation ([1]; 10 µM): 72%; % Inhibition of colony formation ([1]; 30 µM): 100%; % Inhibition of colony formation ([3]; 30 µM): 100%; Inhibition % (tumour growth) ([5]; MCF-7 xenograft, treatment week 2, listed as 5. P-GFLG-1892): 30%; Inhibition % (tumour growth) ([5]; MCF-7 xenograft, treatment week 6, listed as 5. P-GFLG-1892): 43%; increase of the humoral immune response [6]: possesses an immunostimulatory effect; increase of the cellular immune response [7]: two-fold
2 | Ac-D-Trp^1,3,D-Cpa^2,{Lys(n-poly-(N-vinylpyrrolidone-co-maleic acid)-Gly-Phe-Leu-Gly]}^6,D-Ala^10-GnRH [P-GFLG-1544] | 100% | 85% | 100% | 80% | 100% | 100% | not influenced | 30% | 1.806 cm^3 | 70% | 49% | 51% | 3.502 ± 0.321 cm^3 | 4.8 ± 0.8 g | 54% | % Inhibition of colony formation ([1]; 50 µM): 100%; % Inhibition of colony formation ([3]; 50 µM): 100%; % Inhibition of colony formation ([4]; 50 µM): 100%; tumour-free animals ([5]; MCF-7 xenograft, 6th week): a tumour-free animal was found; Inhibition % (tumour growth) ([5]; MCF-7 xenograft, treatment week 2, listed as 6. P-GFLG-1544): 30%; Inhibition % (tumour growth) ([5]; MCF-7 xenograft, treatment week 6, listed as 6. P-GFLG-1544): 49%; uterus weight [9]: 0.1149 ± 0.0110 g
